Assay results reported in PubChem BioAssay (NCI).
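In this assay, cells in 96-well plates receive the compound at five concentrations for 48 hours. Endpoints are linearly interpolated between the surrounding concentrations. At the GI50, growth is halved. TGI marks complete inhibition of growth.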

How the values were obtained:
Assay in all cases: NCI anticancer screen, dose series, 48 h
HL-60(TB) leukemia = tested on: HL-60(TB) leukemia
RPMI-8226 leukemia = tested on: RPMI-8226 leukemia
CAKI-1 renal = tested on: CAKI-1 renal
A549 NSCLC = tested on: A549 NSCLC
SK-MEL-5 melanoma = tested on: SK-MEL-5 melanoma
OVCAR-5 ovarian = tested on: OVCAR-5 ovarian
HCC-2998 colon = tested on: HCC-2998 colon
RXF 393 renal = tested on: RXF 393 renal
SK-MEL-28 melanoma = tested on: SK-MEL-28 melanoma
TK-10 renal = tested on: TK-10 renal

Structure (SMILES)	GI50 (HL-60(TB) leukemia)	TGI (HL-60(TB) leukemia)	GI50 (RPMI-8226 leukemia)	TGI (RPMI-8226 leukemia)	GI50 (CAKI-1 renal)	TGI (CAKI-1 renal)	GI50 (A549 NSCLC)	TGI (A549 NSCLC)	GI50 (SK-MEL-5 melanoma)	TGI (SK-MEL-5 melanoma)	GI50 (OVCAR-5 ovarian)	TGI (OVCAR-5 ovarian)	GI50 (HCC-2998 colon)	TGI (HCC-2998 colon)	GI50 (RXF 393 renal)	TGI (RXF 393 renal)	GI50 (SK-MEL-28 melanoma)	TGI (SK-MEL-28 melanoma)	GI50 (TK-10 renal)	TGI (TK-10 renal)
CCN(CC)c1ccc(/C=N/NC(=O)CSc2nc3ccccc3c(=O)n2Cc2ccc(S(N)(=O)=O)cc2)c(O)c1	0.412 µM	5.38 µM	0.521 µM	4.85 µM	1.02 µM	> 100 µM	1.57 µM	> 100 µM	1.57 µM	4.97 µM	2.09 µM	> 100 µM	0.882 µM	> 100 µM	2.5 µM	> 100 µM	1.62 µM	> 100 µM	1.66 µM	> 100 µM
COc1cc(CN(c2ccc(C)cc2)C2OC(=O)c3ccccc32)cc(OC)c1OC (stereo not given)	0.406 µM	33.7 µM	0.455 µM	> 100 µM	0.472 µM	> 100 µM	0.584 µM	> 100 µM	0.271 µM	1.76 µM	1.58 µM	> 100 µM	0.877 µM	> 31.2 µM	0.141 µM	0.52 µM	0.855 µM	> 100 µM	2.51 µM	> 100 µM
C=C1C(=O)O[C@H]2[C@H]1CC/C(COC(=O)NCCc1cccc(OC)c1)=C\CC[C@@]1(C)O[C@@H]21	1.36 µM	4.34 µM	0.917 µM	4.34 µM	1.19 µM	2.52 µM	7.28 µM	21.9 µM	1.84 µM	3.57 µM	2.25 µM	6.05 µM	1.68 µM	3.29 µM	0.673 µM	2.38 µM	1.35 µM	3.3 µM	1.61 µM	3.25 µM
COc1ccc(-c2nn3ncccc3c2-c2ccnc(Nc3ccc4c(c3)OCCO4)n2)cc1	12.9 µM	> 25 µM	4.69 µM	> 20.7 µM	2.7 µM	> 24.1 µM	8.41 µM	> 25 µM	6.26 µM	> 25 µM	5.72 µM	> 25 µM	11 µM	> 25 µM	3.27 µM	> 25 µM	16.9 µM	> 25 µM	4.54 µM	18.5 µM
Cn1cncc1-c1c(F)cncc1NC(=O)c1c(N)nn2cc(F)cnc12	0.272 µM	0.717 µM	1.53 µM	9.4 µM	1.45 µM	21.7 µM	2.27 µM	> 100 µM	1.23 µM	2.48 µM	13 µM	> 100 µM	0.0612 µM	> 100 µM	0.278 µM	16.8 µM	6.52 µM	86.8 µM	4.54 µM	83.7 µM
C/C(=N\NC(N)=S)c1sc(-n2nc(-c3ccccc3)cc2-c2ccccc2)nc1C	–	> 100 µM	–	61.2 µM	–	> 100 µM	–	> 100 µM	–	> 100 µM	–	> 100 µM	–	> 100 µM	–	> 100 µM	–	> 100 µM	–	> 100 µM
COc1ccc2c(c1)CCc1c(CO)c(COC(=O)NC(C)C)n(C)c1-2	–	5.23 µM	–	7.05 µM	–	77.8 µM	–	> 78.5 µM	–	15.1 µM	–	> 100 µM	–	51.5 µM	–	38.7 µM	–	28.6 µM	–	> 100 µM
Cn1cc(C2=C(c3ccccc3C(F)(F)F)C(=O)NC2=O)c2ccccc21	6.87 µM	17.5 µM	10.7 µM	> 25 µM	6.6 µM	> 25 µM	7.89 µM	> 25 µM	4.74 µM	13 µM	> 24.1 µM	> 25 µM	> 19.6 µM	> 25 µM	5.17 µM	16.7 µM	14.6 µM	> 25 µM	10.2 µM	> 25 µM
OC(COc1ccccc1)CN1CCCCC1 (stereo not given)	–	> 100 µM	–	> 100 µM	–	> 100 µM	–	> 100 µM	–	> 100 µM	–	> 100 µM	–	> 100 µM	–	> 100 µM	–	> 100 µM	–	> 100 µM
CCC[CH2][Sn]([CH2]CCC)([CH2]CCC)[O]C(=O)C(OC)c1ccccc1 (stereo not given)	0.0418 µM	0.256 µM	0.0206 µM	0.306 µM	0.115 µM	0.238 µM	0.117 µM	0.265 µM	0.133 µM	0.262 µM	0.0371 µM	0.183 µM	0.0381 µM	0.144 µM	0.0561 µM	0.194 µM	0.137 µM	0.27 µM	0.263 µM	0.984 µM
COc1cc2c(c(OC)c1OC)-c1ccc(SC)c(=O)cc1C(CC(=O)Oc1cccc(F)c1)C2 (stereo not given)	–	0.6 µM	–	6.19 µM	–	> 73.7 µM	–	> 100 µM	–	> 55.8 µM	–	> 100 µM	–	0.426 µM	–	> 100 µM	–	> 100 µM	–	> 100 µM
